From US5593970A, “Heterocyclic anthracycline analogs” (priority 1994, dated 1997)
pIC50: −log10 of the molar value. Several values for one entry are separate records, joined by “and”; a condition that tells them apart may be missing. Equal values may be shown once. Read-outs that look alike come from different tables or passages of the source.

How the values were obtained:
MCF7 = assay: Soft agar colony formation disk diffusion assay; type: cell-based, human; details: 100 μg/DISK
Source text: (§1) A more elaborate version of this fundamental assay, the soft agar colony formation disk diffusion assay was used. This assay defines the relative activity of one particular drug versus a tumoral cell line type. The effect of the test drug against tumoral cells could be measured by its inhibitory capacity against colony formation after the delivery of the compound, in different concentrations on an filter disk(4). A modified technique of this assay was used in order to investigate the antiproliferative activity of candidate compounds. Tumoral cells from solid tumors and ascitic lines were plated separately in a two layer agar matrix. Cell lines to be tested were suspended in an upper layer of 0.4% Noble agar (Difco#00142-01) in RPMI-1066 (Gibco#3201875) at a yield varying between 10^4 to 2×10^5 cells per 60 mm Petri dish. Plating efficiency was determined for each line in order to achieve an optimal number of colonies per dish. Plates were examined before drug administration to confirm a uniform dispersion of single cells. The bottom layer consisted of 0.8% Noble agar, 0.8% Tryptic Soy Broth (difco#0037001)in CMRL-1066/Fischer's. The bottom layers were used within 2 and 9 days of preparation. Plated dishes (bottom layer of agar, upper layer of cells and administered drug were incubated in humidified atmosphere at 37° C., 5% CO2 for 10-20 days depending upon the time necessary to observe adequate colonies (defined as a cell aggregate of more than 50 cells) both control and drug inhibited. Drugs were administered on a paper filter disk (Whatman No. 1) of 6.5 mm diameter placed on the upper layer at 1/3 distance from the edge of the dish. The anti-clonogenic activity of the compounds was measured as the zone of inhibition from the disk edge to the most proximal colonies. This zone of inhibition was checked on an inverted microscope (40×) and was measured with a micrometer mounted in the eyepiece. The ocular micrometer was calibrated with a stage micrometer set for a particular combination of ocular and objective lenses. […] We made a modification of the initial technique by not plating a solid tumor and a leukemia simultaneously in the same Petri dish. Anti-clonogenic tests performed on leukemia cell line have helped in the discovery of the majority of current clinically used cytostatic drugs. Our tests on solid tumor lines (animal or human) may help define active compounds with solid tumor specificity. […] HUMAN TUMORS. […] LS180 (13) and BE1(14) were obtained from the Oncology Dept. of the Montreal General Hospital. […] Cell lines were routinely passaged twice a week by trypsinization and maintained in 25, or 75-sq. cm Falcon Plastic flasks at 37° C., 5% CO2 in humidified atmosphere. Both compounds were dissolved in DMSO (1 mg/100 ul) and brought to final volume (250 ul) with Millipore deionized sterile water. Further dilutions were made with […] volume of 25 ul of freshly prepared solution was placed on the filter disk and allowed to dry.

MCF7/ADR = assay: Soft agar colony formation disk diffusion assay; type: cell-based, human; details: 100 μg/DISK
Source text: as §1

MATB.WT = assay: Soft agar colony formation disk diffusion assay; type: cell-based, rat; details: 100 μg/DISK
Source text: (§2) A more elaborate version of this fundamental assay, the soft agar colony formation disk diffusion assay was used. This assay defines the relative activity of one particular drug versus a tumoral cell line type. The effect of the test drug against tumoral cells could be measured by its inhibitory capacity against colony formation after the delivery of the compound, in different concentrations on an filter disk(4). A modified technique of this assay was used in order to investigate the antiproliferative activity of candidate compounds. Tumoral cells from solid tumors and ascitic lines were plated separately in a two layer agar matrix. Cell lines to be tested were suspended in an upper layer of 0.4% Noble agar (Difco#00142-01) in RPMI-1066 (Gibco#3201875) at a yield varying between 10^4 to 2×10^5 cells per 60 mm Petri dish. Plating efficiency was determined for each line in order to achieve an optimal number of colonies per dish. Plates were examined before drug administration to confirm a uniform dispersion of single cells. The bottom layer consisted of 0.8% Noble agar, 0.8% Tryptic Soy Broth (difco#0037001)in CMRL-1066/Fischer's. The bottom layers were used within 2 and 9 days of preparation. Plated dishes (bottom layer of agar, upper layer of cells and administered drug were incubated in humidified atmosphere at 37° C., 5% CO2 for 10-20 days depending upon the time necessary to observe adequate colonies (defined as a cell aggregate of more than 50 cells) both control and drug inhibited. Drugs were administered on a paper filter disk (Whatman No. 1) of 6.5 mm diameter placed on the upper layer at 1/3 distance from the edge of the dish. The anti-clonogenic activity of the compounds was measured as the zone of inhibition from the disk edge to the most proximal colonies. This zone of inhibition was checked on an inverted microscope (40×) and was measured with a micrometer mounted in the eyepiece. The ocular micrometer was calibrated with a stage micrometer set for a particular combination of ocular and objective lenses. […] We made a modification of the initial technique by not plating a solid tumor and a leukemia simultaneously in the same Petri dish. Anti-clonogenic tests performed on leukemia cell line have helped in the discovery of the majority of current clinically used cytostatic drugs. Our tests on solid tumor lines (animal or human) may help define active compounds with solid tumor specificity. […] Murine tumors were maintained IN VIVO in order to diminish the selection of subpopulations of cells normally present in the heterogenous IN VIVO tumor. The actual drug sensitivity assay was done IN VITRO. For these experiments cells from freshly excised tumors or from ascitic fluids were maintained in RPMI-1066. Both compounds were dissolved in DMSO (1 mg/100 ul) and brought to final volume (250 ul) with Millipore deionized sterile water. Further dilutions were made with […] volume of 25 ul of freshly prepared solution was placed on the filter disk and allowed to dry.

MATB/ADR = assay: Soft agar colony formation disk diffusion assay; type: cell-based, rat
Source text: as §2

SKVLB = assay: Microculture tetrazolium assay; type: cell-based; details: for VLB/OV3: IC50 ratio SKVLB/SKOV3; for pIC50: SKVLB
SKOV3 = assay: Microculture tetrazolium assay; type: cell-based; details: Homo sapiens, SK-OV-3, SKOV3; read-out: IC50
Ovarian = assay: NCI assay, average per cancer type; details: for GI50: read-out: Average LOG10 GI50
tumor cell lines = assay: NCI sulforhodamine B assay, all cell lines; details: Homo sapiens
Renal = assay: NCI assay, average per cancer type; details: for CC50 / GI50: Homo sapiens; for CC50: 48 h, read-out: Average LOG10 LC50; for GI50: read-out: Average LOG10 GI50; for Average LOG10 LC50: Renal, 2880 min
solid tumors = assay: NCI assay, mean potency in solid tumors; details: for GI50: read-out: Average LOG10 GI50, Mean Potency in solid tumors; for Average LOG10 LC50, Mean Potency in solid tumors: 2880 min
Leukemia = assay: NCI assay, average per cancer type; details: for CC50: 48 h, read-out: Average LOG10 LC50; for GI50: read-out: Average LOG10 GI50; for Average LOG10 LC50: Leukemia, 2880 min
Colon = assay: NCI assay, average per cancer type; details: for CC50 / GI50: Homo sapiens; for CC50: 48 h, read-out: Average LOG10 LC50; for GI50: read-out: Average LOG10 GI50; for Average LOG10 LC50: Colon, 2880 min
NSC Lung = assay: NCI assay, average per cancer type; details: for CC50 / GI50: Homo sapiens; for CC50: 48 h, read-out: Average LOG10 LC50; for GI50: read-out: Average LOG10 GI50; for Average LOG10 LC50: NSC Lung, 2880 min
Melanoma = assay: NCI assay, average per cancer type; details: for CC50 / GI50: Homo sapiens; for CC50: 48 h, read-out: Average LOG10 LC50; for GI50: read-out: Average LOG10 GI50; for Average LOG10 LC50: Melanoma, 2880 min
CNS = assay: NCI assay, average per cancer type; details: for GI50: read-out: Average LOG10 GI50
SC Lung = assay: NCI assay, average per cancer type; details: for GI50: read-out: Average LOG10 GI50; for Average LOG10 LC50: SC Lung, 2880 min
LOX = assay: Microculture tetrazolium assay; type: cell-based; details: read-out: IC50
T47D = assay: Microculture tetrazolium assay; type: cell-based
[1] = Homo sapiens, 48 h, read-out: Average LOG10 LC50

Row | Structure (SMILES) | GI50 (Ovarian; Homo sapiens) | CC50 (Renal) | GI50 (Renal) | GI50 (solid tumors; Homo sapiens) | CC50 (Leukemia) | GI50 (Leukemia) | CC50 (Colon) | GI50 (Colon) | CC50 (NSC Lung) | GI50 (NSC Lung) | CC50 (Melanoma) | GI50 (Melanoma) | GI50 (CNS; Homo sapiens) | GI50 (SC Lung; Homo sapiens) | Average LOG10 LC50 (Renal) | Average LOG10 LC50, Mean Potency in solid tumors (solid tumors) | Average LOG10 LC50 (Leukemia) | Average LOG10 LC50 (Colon) | Average LOG10 LC50 (NSC Lung) | Average LOG10 LC50 (Melanoma) | other results
1 | CCOC(=O)C1Cc2c(OCC)c3c(c(O)c2C(O[C@H]2C[C@H](NC(=O)C(F)(F)F)[C@H](O)[C@H](C)O2)O1)C(=O)c1ccccc1C3=O (stereo partly drawn) [BCH-705] |  |  |  |  |  |  |  |  |  |  |  |  |  |  |  |  |  |  |  |  | zone of inhibition (MCF7): 79.3 ± 8.6 Zone Units; zone of inhibition (MCF7/ADR): 35.5 ± 7.3 Zone Units; zone of inhibition (MATB.WT): 259.2 ± 21.5 Zone Units; cross resistance with adriamycin, MATB/ADR vs MATB.WT (MATB/ADR): no cross resistance with adriamycin; zone of inhibition (MATB/ADR; 100 μg/DISK): 155.5 ± 4.3 Zone Units; VLB/OV3 (SKVLB): 1.09; pIC50 (SKVLB; read-out: IC50): 4.85; pIC50 (SKOV3): 4.89
2 | CCOC(=O)[C@@H]1CC2=C(C(=O)c3c(cc4ccccc4c3O)C2=O)[C@@H](O[C@H]2C[C@H](NC(=O)C(F)(F)F)[C@H](O)[C@H](C)O2)O1 [BCH-673] | 1550 nM | 11000 nM | 1580 nM | 1550 nM | > 100000 nM | 1070 nM | 34700 nM | 794 nM | 21900 nM | 1740 nM | 13500 nM | 1480 nM | 2240 nM | 1820 nM |  |  |  |  |  |  | CC50 (Ovarian; [1]): 21900 nM; CC50 (tumor cell lines; 48 h, read-out: Log10 LC50, Mean / MG-MID, all cell lines (converted)): 20900 nM; IC100 (tumor cell lines; 48 h, read-out: Log10 TGI, Mean / MG-MID, all cell lines): 4.47 µM; GI50 (tumor cell lines; read-out: Log10 GI50, Mean / MG-MID, all cell lines (converted)): 1480 nM; CC50 (solid tumors; Homo sapiens, 48 h, read-out: Average LOG10 LC50, Mean Potency in solid tumors): 21900 nM; CC50 (CNS; [1]): 26900 nM; CC50 (SC Lung; [1]): 36300 nM
3 | COc1cccc2c1C(=O)c1c(O)c3c(c(O)c1C2=O)C[C@@](O)(C(C)=O)C[C@@H]3O[C@H]1C[C@H](N)[C@H](O)[C@H](C)O1 [DNM, reference compound] | 138 nM | 16600 nM | 162 nM | 112 nM | 50100 nM | 56.2 nM | 14800 nM | 151 nM | 8510 nM | 91.2 nM | 2290 nM | 112 nM | 91.2 nM | 72.4 nM | -4.78 ± 0.46 log molar | -5.11 ± 0.34 log molar | -4.30 ± 0.36 log molar | -4.83 ± 0.37 log molar | -5.07 ± 0.37 log molar | -5.64 ± 0.17 log molar | Average LOG10 LC50 (Ovarian; Ovarian, 2880 min): -4.78 ± 0.20 log molar; Average LOG10 LC50 (CNS; CNS, 2880 min): -5.08 ± 0.42 log molar; Average LOG10 LC50 (SC Lung): -5.58 ± 0.09 log molar
4 | COc1cccc2c1C(=O)c1c(O)c3c(c(O)c1C2=O)C[C@@](O)(C(=O)CO)C[C@@H]3O[C@H]1C[C@H](N)[C@H](O)[C@H](C)O1 [ADR, reference compound] | 282 nM | 13500 nM | 182 nM | 117 nM | 17400 nM | 30.9 nM | 13800 nM | 245 nM | 9770 nM | 46.8 nM | 2750 nM | 120 nM | 85.1 nM | 53.7 nM | -4.87 ± 0.38 log molar | -5.07 ± 0.28 log molar | -4.76 ± 0.10 log molar | -4.86 ± 0.27 log molar | -5.01 ± 0.26 log molar | -5.56 ± 0.29 log molar | pIC50 (LOX): 7.36; VLB/OV3 (SKVLB; listed as Adriamycin): 82.63 and 121.5; pIC50 (SKVLB): 5.33; pIC50 (T47D; Homo sapiens): 7.12; pIC50 (T47D; listed as Adriamycin): 7.14; Average LOG10 LC50 (SC Lung): -5.39 ± 0.18 log molar
